Reference: PubChem BioAssay (NCI)
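Cultured in 96-well plates, cells were exposed to test compound for 48 hours across five concentrations. GI50 is the concentration that inhibits growth by half. TGI is the concentration that stops growth completely.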

Columns and labels:
Experiment in all cases: NCI-60 cell line screen, 48 h
CCRF-CEM leukemia = test system: CCRF-CEM leukemia
DU-145 prostate = test system: DU-145 prostate
K-562 leukemia = test system: K-562 leukemia
MALME-3M melanoma = test system: MALME-3M melanoma
OVCAR-4 ovarian = test system: OVCAR-4 ovarian
PC-3 prostate = test system: PC-3 prostate
RXF 393 renal = test system: RXF 393 renal
SK-MEL-28 melanoma = test system: SK-MEL-28 melanoma
SK-MEL-5 melanoma = test system: SK-MEL-5 melanoma
SW-620 colon = test system: SW-620 colon

| Structure (SMILES) | TGI (CCRF-CEM leukemia) [µM] | TGI (DU-145 prostate) [µM] | TGI (K-562 leukemia) [µM] | TGI (MALME-3M melanoma) [µM] | TGI (OVCAR-4 ovarian) [µM] | TGI (PC-3 prostate) [µM] | TGI (RXF 393 renal) [µM] | TGI (SK-MEL-28 melanoma) [µM] | TGI (SK-MEL-5 melanoma) [µM] | TGI (SW-620 colon) [µM] | GI50 (OVCAR-4 ovarian) [µM] | GI50 (DU-145 prostate) [µM] | GI50 (MALME-3M melanoma) [µM] | GI50 (PC-3 prostate) [µM] | GI50 (RXF 393 renal) [µM] | GI50 (SK-MEL-28 melanoma) [µM] | GI50 (SK-MEL-5 melanoma) [µM] | GI50 (SW-620 colon) [µM] |
| --- | --- | --- | --- | --- | --- | --- | --- | --- | --- | --- | --- | --- | --- | --- | --- | --- | --- | --- |
| CC(C)(C)OC(=O)CC(NC(=O)OC(C)(C)C)C(=O)Oc1ccc([N+](=O)[O-])cc1 (configuration not stated) | > 100 | > 100 | > 100 | > 100 | > 100 | > 100 | > 100 | > 100 | > 100 | > 100 | – | – | – | – | – | – | – | – |
| O[C@H]1[C@@H]2OC[C@@H](O)[C@H](OCc3ccccc3)[C@@](COCc3ccccc3)(O2)[C@@H]1OCc1ccccc1 | 42.1 | 35.5 | 67 | 28.6 | 24.4 | 28.3 | 39.8 | 27.3 | – | 33.1 | – | – | – | – | – | – | – | – |
| CC(=O)Oc1ccc2c3c1[C@@H]1O[C@@H]1c1cccc(c1-3)[C@@H]1O[C@H]21 | 3.94 | 4.18 | > 100 | – | 5.48 | – | 2.73 | – | 3.56 | – | 2.39 | – | – | – | – | – | – | – |
| CCCC(=O)OC1=C(c2ccccc2)Sc2ccccc2-n2cccc21 | > 10 | > 10 | > 10 | > 10 | > 10 | > 10 | > 10 | > 10 | > 10 | > 10 | – | – | – | – | – | – | – | – |
| NC(=O)N=Nc1c2ccccc2n2[nH]ccc12 | > 100 | > 100 | > 100 | > 100 | > 100 | > 100 | 59.4 | > 100 | > 100 | > 100 | – | – | – | – | – | – | – | – |
| Nc1ccc2c(c1)S(=O)(=O)c1cc(N)ccc1-2 | – | > 100 | > 100 | – | > 100 | > 100 | > 100 | – | > 100 | > 100 | – | – | – | – | – | – | – | – |
| C=C(C)COC(=O)COCC(=O)OCC(=C)C | > 100 | > 100 | > 100 | > 100 | > 100 | > 100 | > 100 | > 100 | > 100 | > 100 | – | – | – | – | – | – | – | – |
| COc1cc2c(cc1O)N=C[C@@H]1CCC(O)N1C2=O (mixture of isomers) | 1.66 | – | 24.2 | 1.42 | 18 | – | 0.638 | 2.84 | 1.83 | 6.96 | – | – | – | – | – | – | – | – |
| C/C=C1/C(=O)O[C@]23C=C[C@@H]4C(C(=O)OC)=CO[C@H](O[C@@H]12)[C@@H]43 | 3.56 | – | 7.93 | 5.61 | 2.98 | – | 1.29 | 7.63 | 4.2 | – | – | – | – | – | – | – | – | – |
| O=c1c2cc([N+](=O)[O-])cnc2sn1-c1ccc(Br)cc1 | 66.6 | > 100 | – | 57 | 82 | > 100 | – | > 100 | > 100 | > 100 | – | – | – | – | – | – | – | – |
| CC(CNc1nc(Nc2ccc(Cl)c(Cl)c2)nc(C(Cl)(Cl)Cl)n1)N(C)C (configuration not stated) | – | 4.09 | – | 3.79 | – | 3.84 | 2.88 | 3.29 | 2.98 | 2.95 | – | 1.99 | 1.79 | 1.76 | 1.52 | 1.83 | 1.63 | 1.6 |
| COc1cccc(-c2cc(=O)c3cc(N4CCCC4)ccc3[nH]2)c1 | > 10 | < 0.001 | > 8.09 | 9.53 | > 10 | > 10 | – | > 10 | 0.00747 | > 10 | – | – | – | – | – | – | – | – |
| Cc1ccc(C(=O)N/N=C(\N=Nc2ccccc2)c2ccc(N(CCC#N)CCC#N)cc2C)cc1 | > 100 | > 100 | > 100 | – | > 100 | > 100 | > 100 | > 100 | > 100 | > 100 | – | – | – | – | – | – | – | – |
| CC(=O)Oc1cc2c(n(C)c1=O)CCC2 | > 100 | > 100 | > 100 | > 100 | > 100 | > 100 | – | > 100 | > 100 | > 100 | – | – | – | – | – | – | – | – |
| O=c1ccc2nc3ccc(O)cc3oc-2c1 | > 100 | 57.5 | 34.7 | 8.76 | > 100 | > 100 | > 100 | – | 2.95 | > 88.9 | – | – | – | – | – | – | – | – |
| CC1CC(c2ccc([N+](=O)[O-])cc2)=Nc2ccccc2S1=O (configuration not stated) | 42.2 | – | 75 | – | 62.3 | – | 23.6 | 43.6 | 37.1 | 29.3 | – | – | – | – | – | – | – | – |
| C1COCCOP2(N3CC3)=NP(N3CC3)(=NP(N3CC3)(N3CC3)=N2)OCCOCCO1 (configuration not stated) | > 100 | > 100 | > 100 | > 100 | > 100 | > 100 | > 100 | – | > 100 | > 100 | – | – | – | – | – | – | – | – |
| Cn1c2c(c3c(=O)[nH]ncc31)CCCc1ccccc1-2 | > 100 | > 100 | > 100 | 60.7 | > 100 | > 100 | – | – | 30.5 | > 100 | – | – | – | – | – | – | – | – |
| COc1ccc(-c2cc(-c3ccccc3)nc(N)n2)c(O)c1 | > 100 | – | > 22.9 | > 100 | > 100 | > 100 | > 100 | > 100 | > 100 | > 100 | – | – | – | – | – | – | – | – |
| Nc1nc2c(ncn2CC(CO)CC(c2ccccc2)P(=O)(O)O)c(=O)[nH]1 (configuration not stated) | > 100 | – | > 100 | > 100 | – | – | > 100 | > 100 | > 100 | > 100 | – | – | – | – | – | – | – | – |
| CC1(C)O[C@@H](CP(c2ccc3ccccc3c2)c2ccc3ccccc3c2)[C@H](CP(c2ccc3ccccc3c2)c2ccc3ccccc3c2)O1 | > 100 | > 100 | > 100 | – | > 100 | > 100 | > 100 | > 100 | > 100 | > 100 | – | – | – | – | – | – | – | – |
| CCN1CCC(O)(/C=C/c2ccc(Cl)cc2)C(C(=O)/C=C/c2ccc(Cl)cc2)C1 (configuration not stated) | > 100 | – | > 100 | > 100 | 96 | – | – | 57 | 28.3 | 56.8 | – | – | – | – | – | – | – | – |
